Structures are written as SMILES.

1 compound from PMC7272483, “Insights into the pH-dependent, extracellular sucrose utilization and concomitant levan formation by Gluconobacter albidus TMW 2.1191” (Antonie Van Leeuwenhoek, 2020) can be followed below.

The target of this assay is T1, levansucrase of G. albidus TMW 2.1191 (Gluconobacter albidus, UniProt A0A149SZ56).
T1 construct: gene lsc-2; cloned levansucrase gene expressed from pBAD in E. coli Top 10, crude lysate (Ni-NTA purification failed); native released enzyme ~48 kDa monomer, also tested in crude buffer supernatant
T1 sequence (A0A149SZ56 1-436): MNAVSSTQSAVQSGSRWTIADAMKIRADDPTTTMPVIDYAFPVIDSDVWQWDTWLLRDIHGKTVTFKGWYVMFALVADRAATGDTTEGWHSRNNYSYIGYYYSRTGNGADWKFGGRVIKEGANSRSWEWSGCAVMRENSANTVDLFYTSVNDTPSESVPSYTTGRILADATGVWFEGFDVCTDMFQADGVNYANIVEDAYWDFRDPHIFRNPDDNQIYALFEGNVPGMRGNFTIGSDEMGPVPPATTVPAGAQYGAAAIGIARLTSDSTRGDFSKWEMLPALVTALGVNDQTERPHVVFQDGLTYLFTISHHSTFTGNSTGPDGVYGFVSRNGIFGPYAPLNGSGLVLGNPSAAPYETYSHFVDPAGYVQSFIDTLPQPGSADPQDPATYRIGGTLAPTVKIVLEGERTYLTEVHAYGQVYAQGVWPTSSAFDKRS
Briefly: glucose/fructose release, enzymatic D-fructose/D-glucose kit. It counts as cell-based. Particulars: E. coli lysate with recombinant enzyme; pH 3.0-7.0, 30 °C, 1 h; hydrolysis and transfructosylation.

As to `OC[C@H]1O[C@@](CO)(O[C@H]2O[C@H](CO)[C@@H](O)[C@H](O)[C@H]2O)[C@@H](O)[C@@H]1O` [sucrose], the volumetric activity entry was “the enzyme exhibits comparable activities and Michaelis–Menten kinetics within a broad pH range”.
